In US5908868A, “Retinol derivatives useful for enhancing immune response” (priority 1995, dated 1999):

How the values were obtained:
SK3886 = test: Retinol metabolism; type: in vitro ADME
Protocol: (§1) FBS. The FBS was preincubated at room temperature with 14.4 uCi [^3 H
(§2) retinol (NEN) for 4 h. The cell pellet was washed twice with PBS. The
(§3) retinoid were extracted according to MClean et al. 90 and separated on an
(§4) analytical c18 reverse phase column according to FIG. 7. The DPM wer
(§5) determined using an online scintillation counter.

ERLD = test: Retinol metabolism; type: in vitro ADME
Protocol: as §1, §2, §3, §4, §5

RPMI = test: Retinol metabolism; type: in vitro ADME; conditions: RPMI leukemia (ALL)
Protocol: as §1, §2, §3, §4, §5

thymocytes = test: Growth-stimulating effect of retinol on anti-CD3 activated thymocytes in the presence of interleukins; type: cell-based, BALB/c mouse; conditions: 3 days

CC1=C(/C=C/C(C)=C/C=C/C(C)=C/CO)C(C)(C)CCC1 [retinol, all-trans retinol]
Total cts. (SK3886; SK3886): 4.7 × 10^5 cts. | Ester (% of taken up retinol) (SK3886; SK3886, overnight): 2% | P3 (% of taken up retinol) (SK3886; SK3886, overnight): 3% | Retinol (% of taken up retinol) (SK3886; SK3886, overnight): 92% | Total cts. (ERLD): 2.8 × 10^5 cts. | Ester (% of taken up retinol) (ERLD; overnight): 20% | P3 (% of taken up retinol) (ERLD; overnight): 9% | Retinol (% of taken up retinol) (ERLD; overnight): 63% | Total cts. (RPMI): 1.2 × 10^5 cts. | Ester (% of taken up retinol) (RPMI; overnight): 38% | P3 (% of taken up retinol) (RPMI; overnight): 2% | Retinol (% of taken up retinol) (RPMI; overnight): 58% | CPM anti-CD3, 10^-6 M Retinol (thymocytes): 79,247 ± 17,567 CPM
